# Results: patent US10239881B2, “RIPK2 inhibitors and method of treating cancer with same” (University Health Network, priority 2014, dated 2019)
# pIC50: −log10 of the molar value.
# Columns and labels:
# human RIPK2 kinase = human RIPK2 kinase (Homo sapiens (Human), UniProt O43353); test: RIPK2 inhibition assay (indirect ELISA); type: biochemical; details: His-RIPK2 0.6 nM, 6 μM ATP; read-out: RIPK2 IC50 range
# Protocol: Active RIPK2 was purchased from Life Technologies as His-tagged of catalityc domain (amin acids 1-299) of human RIPK2 kinase expressed in insect cells. Amino terminal 6 histidine, sumo tagged human TTK (residues 1-275) was expressed in E. coli, and purified to >95% homogeneity by Ni^2+ agarose, gel filtration, and ion exchange chromatography.
# RIPK2 activity was measured using an indirect ELISA detection system. His—RIPK2 (0.6 nM) was incubated in the presence of 6 μM ATP (Sigma cat # A7699), 20 mM Hepes, pH 7.5, 1 mM EGTA, 2.5 mM MgCl2, 2.5 mM MnCl2 and 0.01% Triton X-100 in a 96 well microtitre plate pre-coated with amino terminal 6 histidine, sumo tagged TTK (amino acid residues 1-275). The reaction was allowed to proceed for 30 minutes, followed by 5 washes of the plate with Wash Buffer (phosphate buffered saline supplemented with 0.2% Tween 20), and incubation for 30 minutes with a 1:3000 dilution of primary antibody (Cell Signaling cat #9381). The plate was washed 5 times with Wash Buffer, incubated for 30 minutes in the presence of secondary antibody coupled to horse radish peroxidase (BioRad cat #1721019, 1:3000 concentration), washed an additional 5 times with Wash Buffer, and incubated in the presence of TMB substrate (Sigma cat # T0440). The colorimetric reaction was allowed to continue for 5 minutes, followed by addition of stop solution (0.5 N H2SO4), and quantified by detection at 450 nm with either a monoChromatic or filter based plate reader (Molecular Devices M5 or Beckman DTX880, respectively).
# Compound inhibition was determined at either a fixed concentration (10 μM) or at a variable inhibitor concentration (typically 50 μM to 0.1 μM in a 10 point dose response titration). Compounds were pre-incubated in the presence of enzyme for 15 minutes prior to addition of ATP and the activity remaining quantified using the above described activity assay. The % Inhibition of a compound was determined using the following formula; % Inhibition=100×(1−(experimental value−background value)/(high activity control−background value)). The IC50 value was determined using a non-linear 4 point logistic curve fit (XLfit4, IDBS) with the formula; (A+(B/(1+((x/C)^D)))), where A=background value, B=range, C=inflection point, D=curve fit parameter.
# [1] = tested on: MDA-MB-231 breast cancer cells; test: Sulforhodamine B cell growth inhibition assay; type: cell-based; details: Homo sapiens, MDA-MB-231, 120 h; 5 days, SRB; read-out: Breast GI50 range MDA-MB-231
# Protocol: (§1) Breast cancer cells (MDA-MB-231 and MDA-MB-468), colon cancer cells (HCT116 and HT-29) and ovarian cancer cells (SKOV-3 and OVCAR-3) were seeded (1000 to 4000 in 80 μL per well depending on the cell growth rate) into 96 well plates 24 hours before compound overlay. Compounds were prepared as 10 mM stock solutions in 100% DMSO which were diluted with DMEM (Dulbecco's Modified Eagle's Medium) cell growth Medium (Invitrogen, Burlington, ON, Canada) containing 10% FBS (Fetal Bovine Serum) to concentrations ranging from 50 nM to 250 μM. Aliquots (20 μL) from each concentration were overlaid to 80 μL of the pre-seeded cells in the 96 well plates to make final concentrations of 10 nM to 50 μM. The cells were cultured for 5 days before the Sulforhodamine B assay (SRB) was performed to determine the compound's cell growth inhibition activity.
# (§2) The cells are fixed in situ by gently aspirating off the culture media and adding 50 μL ice cold 10% trichloroacetic acid per well and incubate at 4° C. for 30-60 min. The plates are washed with H2O five times and allowed to air dry for 5 min. Addition of 50 μL 0.4% (w/v) SRB solution in 1% (v/v) acetic acid to each well and incubation for 30 min at rt completes the staining reaction. Following staining, plates are washed four times with 1% acetic acid to remove unbound dye and then allowed to air dry for 5 min. The stain is solubilized with 100 μL of 10 mM Tris pH 10.5 per well. Absorbance is read at 570 nm. The percentage (%) of relative growth inhibition was calculated by comparing to DMSO treated only cells (100%). GI50's were determined for compounds with cytotoxic activity. The GI50 was calculated using GraphPad PRISM software (GraphPad Software, Inc., San Diego, Calif., USA). GI50 (growth inhibition) is the compound concentration that causes 50% inhibition of cell growth.
# (§3) In Table 2 lists GI50 value ranges for compound examples against breast cancer cell lines (MDA-MB-231, MDA-MB-468), colon cancer cell lines (HCT116, HT-29) and ovarian cancer cell lines (OVCAR-3, SKOV-3) are given. […] The GI50 ranges are indicated as “A,” “B,” and “C,” for values less than or equal to 1 μM; those greater than 1 μM and less than or equal to 10 μM; and those greater than 10 μM, respectively.
# HT-29 colon cancer cells = test: Sulforhodamine B cell growth inhibition assay; type: cell-based; details: Homo sapiens, HT-29, 120 h; 5 days, SRB; read-out: Colon GI50 range HT29
# Protocol: as §1, §2, §3
# [2] = tested on: OVCAR-3 ovarian cancer cells; test: Sulforhodamine B cell growth inhibition assay; type: cell-based; details: Homo sapiens, OVCAR-3, 120 h; 5 days, SRB; read-out: Ovarian GI50 range OVCAR-3
# Protocol: as §1, §2, §3
# [3] = tested on: HCT116 colon cancer cells; test: Sulforhodamine B cell growth inhibition assay; type: cell-based; details: Homo sapiens, HCT-116, 120 h; 5 days, SRB; read-out: Colon GI50 range HCT116
# Protocol: as §1, §2, §3
# [4] = tested on: MDA-MB-468 breast cancer cells; test: Sulforhodamine B cell growth inhibition assay; type: cell-based; details: Homo sapiens, MDA-MB-468, 120 h; 5 days, SRB; read-out: Breast GI50 range MDA-MB-468
# Protocol: as §1, §2, §3
# [5] = tested on: SKOV-3 ovarian cancer cells; test: Sulforhodamine B cell growth inhibition assay; type: cell-based; details: Homo sapiens, SK-OV-3, 120 h; 5 days, SRB; read-out: Ovarian GI50 range SKOV-3
# Protocol: as §1, §2, §3
# Sequence of human RIPK2 kinase (O43353 1-299): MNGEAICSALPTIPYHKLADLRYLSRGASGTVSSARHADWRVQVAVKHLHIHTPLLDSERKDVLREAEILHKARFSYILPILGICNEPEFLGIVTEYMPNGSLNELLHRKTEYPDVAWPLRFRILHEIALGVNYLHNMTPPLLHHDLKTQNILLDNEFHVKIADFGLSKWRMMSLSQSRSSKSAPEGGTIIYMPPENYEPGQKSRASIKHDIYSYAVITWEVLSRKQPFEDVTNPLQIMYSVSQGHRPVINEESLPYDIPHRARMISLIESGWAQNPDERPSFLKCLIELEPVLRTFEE
structure (smiles),measurement,setting,value
"c1ccc(Nc2ncc3[nH]c(-c4ccccc4)cc3n2)cc1 [Example A1, N,6-diphenyl-5H-pyrrolo[3,2-d]pyrimidin-2-amine]",pIC50,human RIPK2 kinase,< 6.30
"Cc1ccccc1-c1cc2nc(Nc3ccc(OC4CCN(C)CC4)cc3)ncc2[nH]1 [Example A2, N-(4-((1-methylpiperidin-4-yl)oxy)phenyl)-6-(o-tolyl)-5H-pyrrolo[3,2-d] pyrimidin-2-amine]",GI50,[1],1 to 10 µM
same,GI50,HT-29 colon cancer cells,1 to 10 µM
same,GI50,[2],1 to 10 µM
same,GI50,[3],1 to 10 µM
same,GI50,[4],1 to 10 µM
same,GI50,[5],1 to 10 µM
same,pIC50,human RIPK2 kinase,≥ 7.00
"Cc1nc(Nc2ncc3[nH]c(-c4ccccc4C)cc3n2)cc(N2CCN(CCO)CC2)n1 [Example A5, 2-(4-(2-methyl-6-((6-(o-tolyl)-5H-pyrrolo[3,2-d]pyrimidin-2-yl)amino)pyrimidin-4-yl)piperazin-1-yl)ethanol]",pIC50,human RIPK2 kinase,< 6.30
"Cc1cccc(C)c1-c1cc2nc(Nc3cccc(N4CCN(C)CC4)c3)ncc2[nH]1 [Example A6, 6-(2,6-dimethylphenyl)-N-(3-(4-methylpiperazin-1-yl)phenyl)-5H-pyrrolo[3,2-d]pyrimidin-2-amine]",GI50,[1],1 to 10 µM
same,GI50,HT-29 colon cancer cells,≤ 1 µM
same,GI50,[2],≤ 1 µM
same,GI50,[3],1 to 10 µM
same,GI50,[5],≤ 1 µM
same,pIC50,human RIPK2 kinase,≥ 7.00
"Cc1ccccc1-c1cc2nc(Nc3cccc(CN4CCOCC4)c3)ncc2[nH]1 [Example A7, N-(3-(morpholino-methyl)phenyl)-6-(o-tolyl)-5H-pyrrolo[3,2-d] pyrimidin-2-amine]",GI50,[1],1 to 10 µM
same,GI50,HT-29 colon cancer cells,1 to 10 µM
same,GI50,[2],1 to 10 µM
same,GI50,[3],1 to 10 µM
same,GI50,[5],1 to 10 µM
same,pIC50,human RIPK2 kinase,≥ 7.00
"Cc1ccccc1-c1cc2nc(Nc3ccc(N4CCOCC4)cc3)ncc2[nH]1 [Example A8, N-(4-morpholino-phenyl)-6-(o-tolyl)-5H-pyrrolo[3,2-d]pyrimidin-2-amine]",GI50,[1],> 10 µM
same,GI50,HT-29 colon cancer cells,> 10 µM
same,GI50,[2],> 10 µM
same,GI50,[3],> 10 µM
same,GI50,[5],> 10 µM
same,pIC50,human RIPK2 kinase,≥ 7.00
"Cc1ccccc1-c1cc2nc(Nc3cccc(CN4CCN(C)CC4)c3)ncc2[nH]1 [Example A9, N-(3-((4-methylpiperazin-1-yl)methyl)phenyl)-6-(o-tolyl)-5H-pyrrolo[3,2-d] pyrimidin-2-amine]",GI50,[1],> 10 µM
same,GI50,HT-29 colon cancer cells,≤ 1 µM
same,GI50,[2],≤ 1 µM
same,GI50,[3],1 to 10 µM
same,GI50,[5],≤ 1 µM
same,pIC50,human RIPK2 kinase,≥ 7.00
"CN1CCN(c2cccc(Nc3ncc4[nH]c(C5CCCC5)cc4n3)c2)CC1 [Example A10, 6-cyclopentyl-N-(3-(4-methylpiperazin-1-yl)phenyl)-5H-pyrrolo[3,2-d]pyrimidin-2-amine]",pIC50,human RIPK2 kinase,< 6.30
"CN1CCN(c2cccc(Nc3ncc4[nH]c(-c5ccsc5)cc4n3)c2)CC1 [Example A11, N-(3-(4-methylpiperazin-1-yl)phenyl)-6-(thiophen-3-yl)-5H-pyrrolo[3,2-d]pyrimidin-2-amine]",pIC50,human RIPK2 kinase,≥ 7.00
"c1cc(Nc2ncc3[nH]c(C4CCOCC4)cc3n2)cc(N2CCOCC2)c1 [Example A14, N-(3-morpholino-phenyl)-6-(tetrahydro-2H-pyran-4-yl)-5H-pyrrolo[3,2-d] pyrimidin-2-amine]",pIC50,human RIPK2 kinase,< 6.30
"Cc1ccccc1-c1cc2nc(Nc3ccc(CN4CCOCC4)cc3)ncc2[nH]1 [Example A15, N-(4-(morpholino-methyl)phenyl)-6-(o-tolyl)-5H-pyrrolo[3,2-d] pyrimidin-2-amine]",pIC50,human RIPK2 kinase,≥ 7.00
"OCCN1CCN(c2cccc(Nc3ncc4[nH]c(-c5ccccc5Cl)cc4n3)c2)CC1 [Example A16, 2-(4-(3-((6-(2-chlorophenyl)-5H-pyrrolo[3,2-d]pyrimidin-2-yl)amino)phenyl)piperazin-1-yl) ethanol]",pIC50,human RIPK2 kinase,≥ 7.00
"Cc1ccccc1-c1cc2nc(Nc3ccc(N4CCN(C)CC4)cc3)ncc2[nH]1 [Example A17, N-(4-(4-methylpiperazin-1-yl)phenyl)-6-(o-tolyl)-5H-pyrrolo[3,2-d]pyrimidin-2-amine]",pIC50,human RIPK2 kinase,≥ 7.00
"Cc1ccccc1-c1cc2nc(Nc3ccc(CN4CCN(C)CC4)cc3)ncc2[nH]1 [Example A18, N-(4-((4-methylpiperazin-1-yl)methyl)phenyl)-6-(o-tolyl)-5H-pyrrolo[3,2-d] pyrimidin-2-amine]",pIC50,human RIPK2 kinase,≥ 7.00
"Cc1ccccc1-c1cc2nc(NCCCN3CCOCC3)ncc2[nH]1 [Example A19, N-(3-morpholinopropyl)-6-(o-tolyl)-5H-pyrrolo[3,2-d]pyrimidin-2-amine]",pIC50,human RIPK2 kinase,< 6.30
"Clc1ccccc1-c1cc2nc(Nc3cccc(N4CCOCC4)c3)ncc2[nH]1 [Example A20, 6-(2-chloro-phenyl)-N-(3-morpholino-phenyl)-5H-pyrrolo[3,2-d]pyrimidin-2-amine]",pIC50,human RIPK2 kinase,≥ 7.00
"Cc1ccccc1-c1cc2nc(N[C@H]3CC[C@@H](O)CC3)ncc2[nH]1 [Example A21, (1r,4)-4-((6-(o-tolyl)-5H-pyrrolo[3,2-d]pyrimidin-2-yl)amino) cyclohexanol]",pIC50,human RIPK2 kinase,6.30 to 7.00
"Cc1ccccc1-c1cc2nc(N[C@H]3CC[C@@H](O)CC3)ncc2[nH]1 [Example A22, (1s,4s)-4-((6-(o-tolyl)-5H-pyrrolo[3,2-d]pyrimidin-2-yl)amino) cyclohexanol]",pIC50,human RIPK2 kinase,< 6.30
"Cc1ccccc1-c1cc2nc(NC3CCOCC3)ncc2[nH]1 [Example A23, N-(tetrahydro-2H-pyran-4-yl)-6-(o-tolyl)-5H-pyrrolo[3,2-d]pyrimidin-2-amine]",pIC50,human RIPK2 kinase,< 6.30
"Cc1ccccc1-c1cc2nc(NCC3CCOCC3)ncc2[nH]1 [Example A24, N-((tetrahydro-2H-pyran-4-yl)methyl)-6-(o-tolyl)-5H-pyrrolo[3,2-d]pyrimidin-2-amine]",pIC50,human RIPK2 kinase,6.30 to 7.00
"COc1ccccc1-c1cc2nc(Nc3cccc(N4CCOCC4)c3)ncc2[nH]1 [Example A25, 6-(2-methoxy-phenyl)-N-(3-morpholino-phenyl)-5H-pyrrolo[3,2-d] pyrimidin-2-amine]",pIC50,human RIPK2 kinase,6.30 to 7.00
"Cc1ccccc1-c1cc2nc(NCC3(N4CCOCC4)CCCC3)ncc2[nH]1 [Example A26, N-((1-morpholino-cyclopentyl)methyl)-6-(o-tolyl)-5H-pyrrolo[3,2-d]pyrimidin-2-amine]",pIC50,human RIPK2 kinase,< 6.30
